In patent US20240368163A1, “COMPOUNDS AND METHODS FOR MODULATING SPLICING” (REMIX THERAPEUTICS INC., priority 2021, published 2024):

Tests used:
Type in all cases: cell-based, human
HTT [1] = experiment: Splicing RT-qPCR assay, HTT mRNA canonical junction (CJ) and alternative junction (AJ); conditions: Homo sapiens; for AC50: increase in AJ mRNA
Outline: (§1)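 Splicing switch read by one-step RT-qPCR of canonical and alternative exon junctions, housekeeper-normalized (GAPDH/GUSB/PPIA), 2^(−ΔΔCt) vs DMSO as percent response. Cells (A673 or K562) dosed 24 h, 11 points 3-fold from 10 uM, DMSO ≤0.25%.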

MYB [2] = experiment: Splicing RT-qPCR assay, MYB mRNA canonical junction (CJ) and alternative junction (AJ); conditions: Homo sapiens; for AC50: increase in AJ mRNA
Outline: as §1

SMN2 = experiment: Splicing RT-qPCR panel, SMN2 canonical junction (CJ) mRNA; conditions: Homo sapiens, RT-qPCR panel, canonical junction mRNA; compound concentration having 50% response in CJ decrease; read-out: SMN2 IC50 (decrease in CJ mRNA levels)
Outline: as §1

Target C [3] = experiment: Splicing RT-qPCR panel, Target C canonical junction (CJ) mRNA; conditions: Homo sapiens, RT-qPCR panel, canonical junction mRNA; compound concentration having 50% response in CJ decrease; read-out: Target C IC50 (decrease in CJ mRNA levels)
Outline: as §1

MYB [4] = experiment: HiBiT protein abundance assay, MYB; conditions: Homo sapiens, K562, 24 h, Table 13A, modified K562 cells
Outline: (§2)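 K562 cells with endogenous HiBiT-tagged target were treated 24 h at 37 °C with compound (10-point 3-fold dilution, top 10 μM final, DMSO ≤0.25%). Lytic LgBiT luminescence was normalized to unmodified K562 (baseline) and DMSO-treated tagged cells; IC50 interpolated at 50% from four-parameter logistic fit.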

HTT [5] = experiment: HiBiT protein abundance assay, HTT; conditions: Homo sapiens, K562, 24 h, Table 13A, modified K562 cells
Outline: as §2

Target C [6] = experiment: HiBiT protein abundance assay, Target C; conditions: Homo sapiens, K562, 24 h, Table 13A, modified K562 cells
Outline: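 HiBiT knock-in K562-derived cells, 10000 cells/well, were treated 24 h at 37 °C with a 10-point 3-fold dilution series (top 10 μM final, DMSO ≤0.25%). Lytic HiBiT luminescence was normalized to unmodified K562 and DMSO controls; IC50 was interpolated at 50% from a four-parameter logistic fit.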

[7] = 24 h, A673 or K562 cells, 24 hours treatment, RT-qPCR
[8] = RT-qPCR panel, canonical junction mRNA, compound concentration having 50% response in CJ decrease, read-out: HTT IC50 (decrease in CJ mRNA levels)
[9] = 24 h, decrease in CJ mRNA, A673 or K562 cells, 24 hours treatment, RT-qPCR, read-out: MYB CJ IC50
[10] = RT-qPCR panel, canonical junction mRNA, compound concentration having 50% response in CJ decrease, read-out: MYB IC50 (decrease in CJ mRNA levels)
[11] = 24 h, decrease in CJ mRNA, A673 or K562 cells, 24 hours treatment, RT-qPCR, read-out: HTT CJ IC50

| SMILES | AC50 (HTT [1]; [7]) [nM] | IC50 (HTT [1]; [8]) [nM] | IC50 (MYB [2]; [9]) [nM] | AC50 (MYB [2]; [7]) [nM] | IC50 (MYB [2]; [10]) [nM] | IC50 (SMN2) [nM] | IC50 (Target C [3]) [nM] | IC50 (MYB [4]) [nM] | IC50 (HTT [5]) [nM] | IC50 (Target C [6]) [nM] | IC50 (HTT [1]; [11]) [nM] |
| --- | --- | --- | --- | --- | --- | --- | --- | --- | --- | --- | --- |
| c1cnn(-c2ccc(-c3ccc(N[C@@H]4C[C@H]5CC[C@@H](C4)N5)nn3)c3[nH]ncc23)c1 [Compound 278] | 100 to 1000 | < 100 | 100 to 1000 | 100 to 1000 | 100 to 1000 | < 100 | 100 to 1000 | 100 to 1000 | < 100 | < 100 | – |
| CN(c1ccc(-c2ccc(-c3ccn(C)c(=O)c3)c3ncsc23)nn1)C1CC(C)(C)NC(C)(C)C1 [Compound 279] | 1000 to 10000 | 1000 to 10000 | 1000 to 10000 | > 10000 | 1000 to 10000 | 100 to 1000 | > 10000 | 1000 to 10000 | 1000 to 10000 | 1000 to 10000 | 1000 to 10000 |
| COc1cc(-c2ccc(-c3ccc(N(C)C4CC(C)(C)NC(C)(C)C4)nn3)c3scnc23)ccn1 [Compound 280] | 100 to 1000 | 100 to 1000 | 1000 to 10000 | 1000 to 10000 | 1000 to 10000 | 100 to 1000 | 1000 to 10000 | 100 to 1000 | < 100 | 100 to 1000 | 100 to 1000 |
| CN(c1ccc(-c2ccc(-c3ccc(=O)n(C)c3)c3ncsc23)nn1)C1CC(C)(C)NC(C)(C)C1 [Compound 281] | > 10000 | > 10000 | 1000 to 10000 | > 10000 | 1000 to 10000 | 100 to 1000 | > 10000 | 1000 to 10000 | 1000 to 10000 | 1000 to 10000 | > 10000 |
| c1nc2c(-c3cn[nH]c3)ccc(-c3ccc(N(C4CCNCC4)C4CC4)nn3)c2s1 [Compound 283] | 1000 to 10000 | 1000 to 10000 | > 10000 | > 10000 | > 10000 | 1000 to 10000 | 1000 to 10000 | 100 to 1000 | 1000 to 10000 | 1000 to 10000 | 1000 to 10000 |
| CC1(C)CC(N(c2ccc(-c3ccc(-c4cn[nH]c4)c4ncsc34)nn2)C2CC2)CC(C)(C)N1 [Compound 284] | 100 to 1000 | 100 to 1000 | 100 to 1000 | > 10000 | 100 to 1000 | 100 to 1000 | 1000 to 10000 | 100 to 1000 | 100 to 1000 | 1000 to 10000 | 100 to 1000 |
| CN(C)[C@H]1[C@@H]2CN(c3ccc(-c4ccc(-c5cn[nH]c5)c5ncsc45)nn3)C[C@@H]21 [Compound 285] | 1000 to 10000 | > 10000 | > 10000 | > 10000 | > 10000 | 100 to 1000 | > 10000 | 1000 to 10000 | 1000 to 10000 | > 10000 | > 10000 |
| CN1CCC12CCN(c1ccc(-c3ccc(-c4cn[nH]c4)c4ncsc34)nn1)C2 (stereo not drawn) [Compound 287] | > 10000 | > 10000 | > 10000 | > 10000 | > 10000 | 100 to 1000 | > 10000 | 100 to 1000 | 1000 to 10000 | 1000 to 10000 | > 10000 |
| CN1CCCC2(CCN2c2ccc(-c3ccc(-c4cn[nH]c4)c4ncsc34)nn2)C1 (stereo not drawn) [Compound 288] | > 10000 | > 10000 | > 10000 | > 10000 | > 10000 | 1000 to 10000 | > 10000 | 100 to 1000 | 1000 to 10000 | 1000 to 10000 | > 10000 |
| CN1CCC2(CC1)CCN2c1ccc(-c2ccc(-c3cn[nH]c3)c3ncsc23)nn1 [Compound 289] | > 10000 | > 10000 | 1000 to 10000 | > 10000 | 1000 to 10000 | > 10000 | > 10000 | 100 to 1000 | 1000 to 10000 | > 10000 | > 10000 |
| [2H]C([2H])([2H])N(c1ccc(-c2ccc(-c3cn[nH]c3)c3cn[nH]c23)nn1)C1CC(C)(C)NC(C)(C)C1 [Compound 292] | 100 to 1000 | 100 to 1000 | 100 to 1000 | 1000 to 10000 | 100 to 1000 | < 100 | 1000 to 10000 | 100 to 1000 | 100 to 1000 | 100 to 1000 | 100 to 1000 |
| CCN(c1ccc(-c2ccc(-c3cn[nH]c3)c3cn[nH]c23)nn1)C1CC(C)(C)NC(C)(C)C1 [Compound 293] | 1000 to 10000 | 1000 to 10000 | 1000 to 10000 | > 10000 | 1000 to 10000 | 100 to 1000 | > 10000 | 1000 to 10000 | 1000 to 10000 | 1000 to 10000 | 1000 to 10000 |
| CN(c1ccc(-c2ccc(-c3cn[nH]c3)c3cn[nH]c23)nn1)[C@@H]1C[C@H]2CCC[C@@H](C1)N2 [Compound 295] | < 100 | < 100 | < 100 | 100 to 1000 | < 100 | < 100 | < 100 | < 100 | < 100 | < 100 | – |
| [2H]C([2H])([2H])N(c1ccc(-c2ccc(-c3cn[nH]c3)c3cn[nH]c23)nn1)[C@@H]1C[C@H]2CCC[C@@H](C1)N2 [Compound 296] | < 100 | < 100 | 100 to 1000 | < 100 | 100 to 1000 | < 100 | < 100 | < 100 | < 100 | < 100 | – |
| CCN(c1ccc(-c2ccc(-c3cn[nH]c3)c3cn[nH]c23)nn1)[C@@H]1C[C@H]2CCC[C@@H](C1)N2 [Compound 297] | 100 to 1000 | 100 to 1000 | 100 to 1000 | 100 to 1000 | 100 to 1000 | < 100 | 100 to 1000 | 100 to 1000 | 100 to 1000 | 100 to 1000 | 100 to 1000 |
